# From US8143278B2, “Organic compounds” (Novartis AG, priority 2006, dated 2012)
# Tests used:
# [1] = molecular target: T1, aldosterone synthase (Homo sapiens, UniProt P19099); assay: in vitro aldosterone synthase inhibition (ASI cell), aldosterone production in NCI-H295R cells; type: cell-based; conditions: 1 μM Ang II, 24 hr
# T1 construct: host or cells: NCI-H295R human adrenocortical carcinoma cells
# T1 sequence (P19099 25-503): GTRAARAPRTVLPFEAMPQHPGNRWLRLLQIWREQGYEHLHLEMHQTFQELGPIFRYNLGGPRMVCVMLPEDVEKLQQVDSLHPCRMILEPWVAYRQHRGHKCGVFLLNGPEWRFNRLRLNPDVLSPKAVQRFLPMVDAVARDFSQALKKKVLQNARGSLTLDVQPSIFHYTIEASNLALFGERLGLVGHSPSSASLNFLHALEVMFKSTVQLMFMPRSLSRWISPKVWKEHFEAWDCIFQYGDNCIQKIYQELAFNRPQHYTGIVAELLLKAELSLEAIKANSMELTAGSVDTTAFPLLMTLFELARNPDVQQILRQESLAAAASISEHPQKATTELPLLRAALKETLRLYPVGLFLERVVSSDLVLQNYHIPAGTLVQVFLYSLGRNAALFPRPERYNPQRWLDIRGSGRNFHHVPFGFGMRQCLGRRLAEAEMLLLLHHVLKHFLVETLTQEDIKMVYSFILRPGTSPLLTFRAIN
# Excerpt: Human adrenocortical carcinoma NCI-H295R cell line is obtained from American Type Culture Collection (Manassas, Va.). Insulin/transferrin/selenium (ITS)-A supplement (100×), DMEM/F-12, antibiotic/antimycotic (100×), and fetal calf serum (FCS) are purchased from Gibco (Grand Island, N.Y.). Anti-mouse PVT scintillation proximity assay (SPA) beads and NBS 96-well plates are obtained from Amersham (Piscataway, N.J.) and Corning (Acton, Mass.), respectively. Solid black 96-well flat bottom plates are purchased from Costar (Corning, N.Y.). Aldosterone and angiotensin (Ang II) are purchased from Sigma (St. Louis, Mo.). D[1,2,6,7-^3H(N)]aldosterone was acquired from PerkinElmer (Boston, Mass.). Nu-serum was a product of BD Biosciences (Franklin Lakes, N.J.). The NADPH regenerating system, dibenzylfluorescein (DBF), and human aromatase Supersomes® are obtained from Gentest (Woburn, Mass.).
# For in vitro measurement of aldosterone activity, human adrenocortical carcinoma NCI-H295R cells are seeded in NBS 96-well plates at a density of 25,000 cells/well in 100 μl of a growth medium containing DMEM/F12 supplemented with 10% FCS, 2.5% Nu-serum, 1 μg ITS/ml, and 1× antibiotic/antimycotic. The medium is changed after culturing for 3 days at 37° C. under an atmosphere of 5% CO2/95% air. On the following day, cells are rinsed with 100 μl of DMEM/F12 and incubated with 100 μl of treatment medium containing 1 μM Ang II and a compound at different concentrations in quadruplicate wells at 37° C. for 24 hr. At the end of incubation, 50 μl of medium is withdrawn from each well for measurement of aldosterone production by an RIA using mouse anti-aldosterone monoclonal antibodies.
# Measurement of aldosterone activity can also be performed using a 96-well plate format. Each test sample is incubated with 0.02 μCi of D-[1,2,6,7-^3H(N)]aldosterone and 0.3 μg of anti-aldosterone antibody in phosphate-buffered saline (PBS) containing 0.1% Triton X-100, 0.1% bovine serum albumin, and 12%, glycerol in a total volume of 200 μl at room temperature for 1 hr. Anti-mouse PVT SPA beads (50 μl) are then added to each well and incubated overnight at room temperature prior to counting in a Microbeta plate counter. The amount of aldosterone in each sample is calculated by comparing with a standard curve generated using known quantities of the hormone.
# Full concentration-response curves of the test compound are performed at least 3 times. The IC50 values are derived using a non-linear least squares curve-fitting program from Microsoft XLfit.
# [2] = molecular target: T2, CYP11B1 (Homo sapiens, UniProt P15538); assay: in vitro CYP11B1 inhibition in NCI-H295R cells; type: cell-based; conditions: read-out: % inhibition CYP11B1 @ 10 nM
# T2 construct: Thus, the NCI-H295R cells have CYP11B1 (steroid 11 p-hydroxylase); host or cells: NCI-H295R human adrenocortical carcinoma cells
# T2 sequence (P15538 25-503): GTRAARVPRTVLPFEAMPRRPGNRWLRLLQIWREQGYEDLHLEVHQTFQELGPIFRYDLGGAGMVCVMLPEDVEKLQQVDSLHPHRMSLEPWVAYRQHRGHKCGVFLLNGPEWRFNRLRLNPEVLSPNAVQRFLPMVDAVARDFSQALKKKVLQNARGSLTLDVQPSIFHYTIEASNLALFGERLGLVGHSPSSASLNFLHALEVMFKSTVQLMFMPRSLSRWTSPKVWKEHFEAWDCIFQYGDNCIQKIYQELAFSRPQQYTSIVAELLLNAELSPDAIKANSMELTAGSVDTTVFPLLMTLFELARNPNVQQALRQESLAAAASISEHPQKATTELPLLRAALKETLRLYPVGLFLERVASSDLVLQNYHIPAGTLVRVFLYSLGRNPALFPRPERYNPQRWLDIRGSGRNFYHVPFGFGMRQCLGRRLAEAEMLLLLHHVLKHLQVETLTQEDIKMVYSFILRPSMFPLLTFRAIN
# Excerpt: The cell line NCI-H295R was originally isolated from an adrenocortical carcinoma and has been characterized in the literature through the stimulable secretion of steroid hormones and the presence of the enzymes essential for steroidogenesis. Thus, the NCI-H295R cells have CYP11B1 (steroid 11 p-hydroxylase). The cells show the physiological property of zonally undifferentiated human foetal adrenocortical cells which, however, have the capacity to produce the steroid hormones which are formed in the three, phenotypically distinguishable zones in the adult adrenal cortex. […]
# The excretion of aldosterone, cortisol, corticosterone and estradiol/estrone into the culture medium can be detected and quantified by commercially available, specific monoclonal antibodies in radioimmunoassays in accordance with the manufacturer's instructions.
# Inhibition of the release of certain steroids can be used as a measure of the respective enzyme inhibition by the added test compounds. The dose-dependent inhibition of enzymic activity by a compound is calculated by means of an inhibition plot which is characterized by an IC50. […]
Structure (SMILES),IC50 [1],inhibition at 0.01 µM [2]
"COc1ccc2c(c1)NC(=O)C(C)(C)C2n1ccnc1 (racemic) [Compound 6, 7-methoxy-4-Imidazol-1-yl-3,3-dimethyl-3,4-dihydro-1H-quinolin-2-one]",34 nM,84%
"CN1C(=O)C(C)(C)C(n2ccnc2)c2ccccc21 (racemic) [Compound 7, 4-Imidazol-1-yl-1,3,3-trimethyl-3,4-dihydro-1H-quinolin-2-one]",10 nM,100%

# Second part, the molecule after the results:
IC50 [1],inhibition at 0.01 µM [2],Structure (SMILES)
12 nM,,"Cc1cncn1C1c2ccc(F)cc2NC(=O)C1(C)C (racemic) [Compound 9, 7-Fluoro-3,3-dimethyl-4-(5-methyl-imidazol-1-yl)-3,4-dihydro-1H-quinolin-2-one]"
137 nM,,"Cc1noc(-c2cncn2C2c3ccccc3NC(=O)C2(C)C)n1 (racemic) [Compound 10, 3,3-Dimethyl-4-[5-(3-methyl-[1,2,4]oxadiazol-5-yl)-imidazol-1-yl]-3,4-dihydro-1H-quinolin-2-one]"
7 nM,,"CC1(C)C(=O)Nc2cccc(Cl)c2C1n1cncc1CO (racemic) [Compound 8, 5-Chloro-4-(5-hydroxymethyl-imidazol-1-yl)-3,3-dimethyl-3,4-dihydro-1H-quinolin-2-one]"
